The target of series [1] is T1, HCV polymerase (NS5B570n-Con1) (Hepatitis C virus genotype 1b, UniProt Q9WMX2).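 Note: recombinant His-tagged enzyme from E. coli, radiolabeled nucleotide incorporation into acid-insoluble RNA read by scintillation after filtration, no-enzyme background subtracted, activity relative to positive control.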
T1 construct: contains a 21 amino acid deletion at the C-terminus relative to the full-length HCV polymerase; 6-histidine (N); made in house; host or cells: E. coli strain BL21(DE) pLysS (pET17b)
Nature of the series: biochemical. On the set-up: species or system HCV Con1 strain.

[2] abbreviates: IC50 HCV NS5B RNA Polymerase Assay, values without asterisk, 20 nM NS5B570n-Con1 enzyme, 20 nM cIRES RNA template.

Turning to `COc1c(CCc2ccc(NS(C)(=O)=O)nc2)cc(-c2ccc[nH]c2=O)cc1C(C)(C)C` [I-123], the melting point (usually the temperature of the solid-liquid transition) lay in the range of 140 to 142 °C. In addition, 3 nM corresponded to half-maximal inhibition in series [1] (setting [2]) (IC50).
For the compound `COc1c(CCc2ccc(NS(C)(=O)=O)cn2)cc(-c2ccc[nH]c2=O)cc1C(C)(C)C` [I-124], the melting point was 131 to 133 °C. Also, the 50% inhibitory concentration (IC50) (in general, the midpoint of a concentration-inhibition curve) in series [1] (setting [2]) was determined as 3 nM.
For the compound `COc1c(CCc2cnc(NS(C)(=O)=O)nc2)cc(-c2ccc[nH]c2=O)cc1C(C)(C)C` [I-125], the melting point was 282 to 283 °C. The same compound registered a 50% inhibitory concentration (IC50) in series [1] (setting [2]) of 16 nM.
For `COc1c(CCc2ccc(NS(C)(=O)=O)nn2)cc(-c2ccc[nH]c2=O)cc1C(C)(C)C` [I-127], in that order: 218 to 220 °C and 4 nM.
The like results for `COc1c(CCc2ccc(N)nn2)cc(-c2ccc[nH]c2=O)cc1C(C)(C)C` [I-128] were, in that order, 142 to 144 °C and 5 nM.
The like results for `COc1c(CCc2cnc(NS(C)(=O)=O)cn2)cc(-c2ccc[nH]c2=O)cc1C(C)(C)C` [I-133] were, in that order, 282 to 283 °C and 16 nM.
With `CC(C)(C)c1cc(/C=C/c2ccc(NS(C)(=O)=O)cc2)c(O)c(-c2ccc[nH]c2=O)c1` [I-137], the melting point lay in the range of 180 to 182 °C. The compound further displayed an IC50 in series [1] (setting [2]) of 10 nM.
For `COc1c(/C=C(\C#N)c2ccc(NS(C)(=O)=O)cc2)cc(-c2ccc[nH]c2=O)cc1C(C)(C)C` [I-138, N-(4-{(Z)-2-[3-tert-Butyl-2-methoxy-5-(2-oxo-1,2-dihydro-pyridin-3-yl)-phenyl]-1-cyano-vinyl}-phenyl)-methanesulfonamide], in that order: 288 to 290 °C and 10 nM.
The like results for `COc1c(/C=C(\C)c2ccc(NS(C)(=O)=O)cc2)cc(-c2ccc[nH]c2=O)cc1C(C)(C)C` [I-139, N-(4-{(E)-2-[3-tert-Butyl-2-methoxy-5-(2-oxo-1,2-dihydro-pyridin-3-yl)-phenyl]-1-methyl-vinyl}-phenyl)-methanesulfonamide] were, in that order, 292 to 294 °C and 8 nM.
For `Cc1ccc(-c2cc(C(C)(C)C)cc(/C=C/c3ccc(NS(C)(=O)=O)cc3)c2O)c(=O)[nH]1` [I-140], in that order: 258 to 260 °C and 322 nM.
`CC(C)(C)c1cc(/C=C/c2ccc(NS(C)(=O)=O)cc2)cc(-c2ccc[nH]c2=O)c1` [I-141, N-(4-{(E)-2-[3-tert-Butyl-5-(2-oxo-1,2-dihydro-pyridin-3-yl)-phenyl]-vinyl}-phenyl)-methanesulfonamide] gave a melting point of 260 to 262 °C. Further, the 50% inhibitory concentration (IC50) in series [1] (setting [2]) was 26 nM.
The like results for `COc1c(/C=C/c2ccccc2)cc(-c2ccc[nH]c2=O)cc1C(C)(C)C` [I-144] were, in that order, 183 to 185 °C and 11 nM.
Regarding `CC(C)(C)c1cc(/C=C/c2ccc(NS(C)(=O)=O)cc2C#N)cc(-c2ccc[nH]c2=O)c1` [I-147, N-(4-{(E)-2-[3-tert-Butyl-5-(2-oxo-1,2-dihydro-pyridin-3-yl)-phenyl]-vinyl}-3-cyano-phenyl)-methanesulfonamide], the melting point is more than 300 °C. In series [1] (setting [2]), this compound had an IC50 of 2 nM.
For `CC(C)(C)c1cc(/C=C/c2ccc(NS(C)(=O)=O)cc2)cc(-c2cc(F)c[nH]c2=O)c1` [I-148], in that order: 210 to 212 °C and 6 nM.
For `COc1c(/C=C/c2ccc(NS(C)(=O)=O)cc2C#N)cc(-c2ccc[nH]c2=O)cc1C(C)(C)C` [I-150, N-(4-{(E)-2-[3-tert-Butyl-2-methoxy-5-(2-oxo-1,2-dihydro-pyridin-3-yl)-phenyl]-vinyl}-3-cyano-phenyl)-methanesulfonamide], in that order: 266 to 268 °C and 3 nM.
`COc1c(/C=C/c2ccc(NS(C)(=O)=O)cc2C#N)cc(-c2cc(F)c[nH]c2=O)cc1C(C)(C)C` [I-151, N-(4-{(E)-2-[3-tert-Butyl-5-(5-fluoro-2-oxo-1,2-dihydro-pyridin-3-yl)-2-methoxy-phenyl]-vinyl}-3-cyano-phenyl)-methanesulfonamide] yielded a melting point of 158 to 160 °C. The half-inhibitory concentration (IC50) in series [1] (setting [2]) stood at 5 nM.
`COc1c(CC(CN)c2ccc(NS(C)(=O)=O)cc2)cc(-c2ccc[nH]c2=O)cc1C(C)(C)C` (centres unmarked) [I-191, N-(4-{1-Aminomethyl-2-[3-tert-butyl-2-methoxy-5-(2-oxo-1,2-dihydro-pyridin-3-yl)-phenyl]-ethyl}-phenyl)-methanesulfonamide] returned a melting point of 158 to 160 °C. Besides, the IC50 in series [1] (setting [2]) was determined as 27 nM.
For `COc1c(CC(CN2CCOCC2)c2ccc(NS(C)(=O)=O)cc2)cc(-c2ccc[nH]c2=O)cc1C(C)(C)C` (centres unmarked) [I-193], in that order: 138 to 140 °C and 12 nM.
Compound `COc1c(CC(CN2CCC(F)(F)C2)c2ccc(NS(C)(=O)=O)cc2)cc(-c2ccc[nH]c2=O)cc1C(C)(C)C` (centres unmarked) [I-195] gave a melting point of 133 to 135 °C. Also, the 50% inhibitory concentration (IC50) in series [1] (setting [2]) was determined as 18 nM.
In turn, `COc1c(CC(C)(C#N)c2ccc(NS(C)(=O)=O)cc2)cc(-c2ccc[nH]c2=O)cc1C(C)(C)C` (centres unmarked) [I-196, N-(4-{2-[3-tert-Butyl-2-methoxy-5-(2-oxo-1,2-dihydro-pyridin-3-yl)-phenyl]-1-cyano-1-methyl-ethyl}-phenyl)-methanesulfonamide] displayed a melting point of 158 to 160 °C. In series [1] (setting [2]), this compound gave an IC50 of 30 nM.
The compound `COc1c(CC(C)(CN)c2ccc(NS(C)(=O)=O)cc2)cc(-c2ccc[nH]c2=O)cc1C(C)(C)C` (centres unmarked) [I-197, N-(4-{1-Aminomethyl-2-[3-tert-butyl-2-methoxy-5-(2-oxo-1,2-dihydro-pyridin-3-yl)-phenyl]-1-methyl-ethyl}-phenyl)-methanesulfonamide] gave a melting point of 240 to 242 °C. Besides, the IC50 in series [1] (setting [2]) stood at 84 nM.
For `CC(C)(CO)c1cc(CCc2ccc(NS(C)(=O)=O)cc2)c(O)c(-c2ccc[nH]c2=O)c1` [I-199, N-(4-{2-[2-Hydroxy-5-(2-hydroxy-1,1-dimethyl-ethyl)-3-(2-oxo-1,2-dihydro-pyridin-3-yl)-phenyl]-ethyl}-phenyl)-methanesulfonamide], in that order: 118 to 120 °C and 13 nM.
`COc1c(/C=C/c2ccc(NS(C)(=O)=O)cc2CO)cc(-c2ccc[nH]c2=O)cc1C(C)(C)C` [I-205, N-(4-{(E)-2-[3-tert-Butyl-2-methoxy-5-(2-oxo-1,2-dihydro-pyridin-3-yl)-phenyl]-vinyl}-3-hydroxymethyl-phenyl)-methanesulfonamide] had a melting point of 140 to 142 °C. The same compound came in with an IC50 in series [1] (IC50 HCV NS5B RNA Polymerase Assay (values with asterisk), values with asterisk: cIRES RNA template, 3 nM NS5B570n-Con1) of 2 nM.
`CC1(C)COc2c(/C=C/c3ccc(NS(C)(=O)=O)cc3)cc(-c3ccc[nH]c3=O)cc21` [II-1, N-(4-{(E)-2-[3,3-Dimethyl-5-(2-oxo-1,2-dihydro-pyridin-3-yl)-2,3-dihydro-benzofuran-7-yl]-vinyl}-phenyl)-methanesulfonamide] showed a melting point of 284 to 286 °C. This compound also showed an IC50 in series [1] (setting [2]) of 5 nM.
For `CC1(C)COc2c(-c3ccc[nH]c3=O)cc(/C=C/c3ccc(NS(C)(=O)=O)cc3)cc21` [II-2], in that order: 231 to 233 °C and 6 nM.

Values taken from patent publication US8273773B2 (priority 2008, dated 2012).
